Test results from patent US7709516B2, “Helix 12 directed non-steroidal antiandrogens” (Endorecherche, Inc., priority 2005, dated 2010).
Where two headings read alike, the source gives them in different places.

Legend:
[1] = test system: Shionogi mouse mammary carcinoma cells; assay: Androgenic/antiandrogenic activity: inhibition of DHT-stimulated Shionogi cell number; format: cell-based; settings: DHT-stimulated Shionogi cell number
Human Androgen Receptor = target: T1, Human Androgen Receptor (Homo sapiens, UniProt P10275); assay: Androgen receptor binding assay ([3H]R1881, HAP) in cytosol of HEK-293 cells transfected with hAR; settings: relative to R1881 = 100, transfected cells
T1 sequence (P10275 1-920): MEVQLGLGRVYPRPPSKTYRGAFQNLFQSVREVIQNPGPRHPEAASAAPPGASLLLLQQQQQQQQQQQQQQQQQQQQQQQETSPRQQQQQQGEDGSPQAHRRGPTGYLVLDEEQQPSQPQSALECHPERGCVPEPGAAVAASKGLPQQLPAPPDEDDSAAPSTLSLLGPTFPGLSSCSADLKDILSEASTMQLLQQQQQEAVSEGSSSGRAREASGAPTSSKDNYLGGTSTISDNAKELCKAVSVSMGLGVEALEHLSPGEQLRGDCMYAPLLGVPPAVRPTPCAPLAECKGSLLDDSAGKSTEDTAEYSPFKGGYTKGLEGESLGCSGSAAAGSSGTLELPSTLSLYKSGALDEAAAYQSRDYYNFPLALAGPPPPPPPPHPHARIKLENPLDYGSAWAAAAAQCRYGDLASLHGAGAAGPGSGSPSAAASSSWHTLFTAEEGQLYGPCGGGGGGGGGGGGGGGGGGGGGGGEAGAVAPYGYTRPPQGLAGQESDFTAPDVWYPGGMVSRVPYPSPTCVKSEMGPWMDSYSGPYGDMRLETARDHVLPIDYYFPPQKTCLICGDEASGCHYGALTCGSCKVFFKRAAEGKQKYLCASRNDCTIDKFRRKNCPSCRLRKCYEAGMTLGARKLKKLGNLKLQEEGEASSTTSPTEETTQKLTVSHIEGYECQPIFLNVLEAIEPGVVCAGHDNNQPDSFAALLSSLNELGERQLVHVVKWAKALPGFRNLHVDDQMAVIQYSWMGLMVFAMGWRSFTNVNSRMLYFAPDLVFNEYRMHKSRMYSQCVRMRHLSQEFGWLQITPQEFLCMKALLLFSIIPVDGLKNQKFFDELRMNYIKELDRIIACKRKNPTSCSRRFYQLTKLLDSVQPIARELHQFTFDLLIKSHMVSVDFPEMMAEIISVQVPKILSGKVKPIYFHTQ

[2] = test system: rat prostate, seminal vesicle, levator ani muscle; assay: Systemic antiandrogenic activity in orchidectomized immature male rats with DHT implant; format: in vivo; settings: Rattus norvegicus, 168 h, rat +DHT, 0.5 mg/animal daily 7 days
[3] = test system: rat prostate, seminal vesicle, levator ani muscle; assay: Systemic androgenic activity in orchidectomized immature male rats; format: in vivo; settings: for change in vivo at 0.2 mg: po, 168 h, 0.2 mg/animal daily 7 days
Description: Column 7 represents the % of androgenic efficacy in rat prostate, expressed in percentage of stimulation:
W is the weight of the prostate.
Column 8 represents the % of androgenic efficacy in rat seminal vesicle, expressed in percentage of stimulation:
W is the weight of the seminal vesicle.
Column 9 represents the % of androgenic efficacy in rat levator ani muscle, expressed in percentage of stimulation: […]
Immature male rats (Crl:CD(SD)Br) 22 to 24-day old were obtained from Charles-River, Inc. (St-Constant, Quebec, Canada) and housed up to 5 per cage in plastic bins in a temperature (23±1° C.)— and light (12 h light/day, lights on at 7h15)— controlled environment. The rats were fed rodent chow and tap water ad libitum. The day following their arrival, the animals were orchidectomized (CX) under Isoflurane anesthesia via scrotal route and randomly assigned to groups of 5 animals.
To evaluate the antiandrogenic activity, tested compounds were administered subcutaneously or orally once daily at a dose of 0.5 mg/animal for antiandrogenitic activity or 0.2 mg/animal for androgenic activity for 7 days (SD 1 to 7). Compounds were solubilized (when possible) in dimethylsulfoxide (DMSO, 10% final concentration) and administered as suspension in 0.4% methylcellulose. […] One group of animals received the antiandrogen Flutamide as reference. The animals were killed by cervical dislocation under isoflurane anesthesia on the 8th morning following castration. The ventral prostate and seminal vesicles were rapidly dissected and weighed.
3. Calculations and Statistical Analysis
W is the weight of the prostate, the seminal vesicle or levator ani.

[4] = Mus musculus, read-out: Shionogi Antiandrogenic Activity IC50, Table 1
[5] = Prostate cell, po, read-out: Lev Ani % inhibition, Table 1, p.o, levator ani
[6] = Prostate cell, po, read-out: SV % inhibition, Table 1, p.o, seminal vesicle
[7] = po, read-out: Prostate % inhibition, Table 1, p.o
[8] = Mus musculus, read-out: Shionogi Antiandrogenic Activity IC50, Table 2
[9] = read-out: Lev Ani % inhibition, Table 2, s.c. or p.o. (route not marked), levator ani
[10] = read-out: Prostate % inhibition, Table 2, s.c. or p.o. (route not marked)
[11] = read-out: SV % inhibition, Table 2, s.c. or p.o. (route not marked), seminal vesicle
[12] = Table 3, agonist reported when compound stimulates the cells
[13] = Table 3, p.o (marked in prostate cell), read-out: % Stimulation Lev.Ani
[14] = Table 3, p.o (marked in prostate cell), read-out: % Stimulation SV
[15] = Table 3, p.o, read-out: % Stimulation Prostate
[16] = Table 3, s.c. or p.o (route not marked)

Row | SMILES | IC50 [1, 4] | Human Androgen Receptor Binding (%) RBA R1881 = 100 (Human Androgen Receptor; Table 1) | inhibition in vivo at 0.5 mg [2, 5] | inhibition in vivo at 0.5 mg [2, 6] | inhibition in vivo at 0.5 mg [2, 7] | further results
1 | CCS(=O)(=O)c1ccc(OCCCN2C(=S)N(c3ccc(C#N)c(C(F)(F)F)c3)C(=O)C2(C)C)cc1 [EM-8188] | 13.9 nM | 15.6% | 68% | 85% | 45% | –
2 | CCCS(=O)(=O)c1ccc(OCCCN2C(=S)N(c3ccc(C#N)c(C(F)(F)F)c3)C(=O)C2(C)C)cc1 [EM-8225] | 22.4 nM | 25.8% | 53% | 79% | 45% | –
3 | CC(C)S(=O)(=O)c1ccc(OCCC2(O)CCN(c3ccc(C#N)c(C(F)(F)F)c3)CC2)cc1 [EM-8228] | – | – | – | – | – | IC50 [1, 8]: 45.1 nM; Human Androgen Receptor Binding (%) RBA R1881 = 100 (Human Androgen Receptor; Table 2): <1.0%; inhibition in vivo at 0.5 mg [2, 9]: 55%; inhibition in vivo at 0.5 mg [2, 10]: 32%; inhibition in vivo at 0.5 mg [2, 11]: 0%
4 | CCCS(=O)(=O)c1ccc(OCCC2(O)CCN(c3ccc(C#N)c(C(F)(F)F)c3)CC2)cc1 [EM-8229] | – | – | – | – | – | IC50 [1, 8]: 49.8 nM; Human Androgen Receptor Binding (%) RBA R1881 = 100 (Human Androgen Receptor; Table 2): <1.0%; inhibition in vivo at 0.5 mg [2, 9]: 16%; inhibition in vivo at 0.5 mg [2, 10]: 3%; inhibition in vivo at 0.5 mg [2, 11]: 19%
5 | CCS(=O)(=O)c1ccc(OCCC2(O)CCN(c3ccc(C#N)c(C(F)(F)F)c3)CC2)cc1 [EM-8230] | – | – | – | – | – | IC50 [1, 8]: 75.9 nM; Human Androgen Receptor Binding (%) RBA R1881 = 100 (Human Androgen Receptor; Table 2): <1.0%; inhibition in vivo at 0.5 mg [2, 9]: 35%; inhibition in vivo at 0.5 mg [2, 10]: 0%; inhibition in vivo at 0.5 mg [2, 11]: 23%
6 | Cc1cc(=O)oc2ccc(OCCCN3C(=S)N(c4ccc(C#N)c(C(F)(F)F)c4)C(=O)C3(C)C)cc12 [EM-8259] | 13.6 nM | 39.6% | 53% | 53% | 31% | –
7 | N#Cc1ccc(N2CCC(O)(CCOc3ccc4oc(=O)ccc4c3)CC2)cc1C(F)(F)F [EM-8284] | – | – | – | – | – | IC50 [1, 8]: 12.8 nM; Human Androgen Receptor Binding (%) RBA R1881 = 100 (Human Androgen Receptor; Table 2): <1.0%; inhibition in vivo at 0.5 mg [2, 9]: 21%; inhibition in vivo at 0.5 mg [2, 10]: 0%; inhibition in vivo at 0.5 mg [2, 11]: 0%
8 | Cc1cc(=O)oc2ccc(OCCC3(O)CCN(c4ccc(C#N)c(C(F)(F)F)c4)CC3)cc12 [EM-8285] | – | – | – | – | – | IC50 [1, 8]: 18.3 nM; Human Androgen Receptor Binding (%) RBA R1881 = 100 (Human Androgen Receptor; Table 2): <1.0%; inhibition in vivo at 0.5 mg [2, 9]: 0%; inhibition in vivo at 0.5 mg [2, 10]: 0%; inhibition in vivo at 0.5 mg [2, 11]: 0%
9 | Cc1cc(=O)oc2cc(OCCCN3C(=S)N(c4ccc(C#N)c(C(F)(F)F)c4)C(=O)C3(C)C)ccc12 [EM-8329] | 9.1 nM | 170.0% | 17% | 58% | 42% | –
10 | CC1(C)C(=O)N(c2ccc(C#N)c(C(F)(F)F)c2)C(=S)N1CCCOc1ccc(SC(F)(F)F)cc1 [EM-8342] | 66.7 nM | 0.5% | 53% | 79% | 43% | –
11 | CC1(C)C(=O)N(c2ccc(C#N)c(C(F)(F)F)c2)C(=S)N1CCCOc1ccc(CN2CCSCC2)cc1 [EM-8344] | 12.6 nM | 161.6% | 51% | 77% | 50% | –
12 | CCC(c1ccc(OCCCN2C(=S)N(c3ccc(C#N)c(Cl)c3C)C(=O)C2(C)C)cc1)N(C)C (stereo not drawn) [EM-8345] | – | – | – | – | – | Shionogi Antiandrogenic Activity IC50 [1, 12]: Partial agonist; Human Androgen Receptor Binding (%) RBA R1881 = 100 (Human Androgen Receptor; Table 3): 68%; change in vivo at 0.2 mg [3, 13]: 77%; change in vivo at 0.2 mg [3, 14]: 18%; change in vivo at 0.2 mg [3, 15]: 42%
13 | Cc1c(N2C(=O)C(C)(C)N(CCCOc3ccc(-n4ccnc4)cc3)C2=S)ccc(C#N)c1Cl [EM-8346] | – | – | – | – | – | Shionogi Antiandrogenic Activity IC50 [1, 12]: Partial agonist; Human Androgen Receptor Binding (%) RBA R1881 = 100 (Human Androgen Receptor; Table 3): 125%; change in vivo at 0.2 mg [3, 13]: 128%; change in vivo at 0.2 mg [3, 14]: 40%; change in vivo at 0.2 mg [3, 15]: 47%
14 | CC1(C)C(=O)N(c2ccc(C#N)c(Cl)c2)C(=S)N1CCCOc1ccc(S(C)(=O)=O)cc1 [EM-8360] | 7.1 nM | 18.1% | 82% | 88% | 56% | –
15 | Cc1cc2c(C)c(C)c(=O)oc2cc1OCCCN1C(=S)N(c2ccc(C#N)c(C(F)(F)F)c2)C(=O)C1(C)C [EM-8385] | – | 50.5% | 20% | 41% | 17% | Shionogi Antiandrogenic Activity IC50 ([1]; Table 1): Partial agonist
16 | CC1(C)C(=O)N(c2ccc(C#N)c(C(F)(F)F)c2)C(=S)N1CCCOc1ccc2c(C(F)(F)F)cc(=O)oc2c1 [EM-8393] | 44.5 nM | 7.7% | 35% | 60% | 3% | –
17 | C[C@]12CC[C@H]3[C@@H](CCC4=CC(=O)CC[C@@]43C)[C@@H]1CC[C@@H]2O [Testo, reference compound] | – | – | – | – | – | IC50 ([1]; Table 3, agonist reported when compound stimulates the cells, read-out: Shionogi Antiandrogenic Activity IC50): 23 to 107 nM; % Stimulation Lev.Ani [3, 16]: 171%; % Stimulation Prostate [3, 16]: 99%; % Stimulation SV [3, 16]: 115%
